Where a name gives a salt, the structure may show the parent alone. Where a SMILES comes first, the peptide text is derived from it.
What was measured:
Trypsin = molecular target: T1, Trypsin (Bos taurus, UniProt P00760); assay: Substrate specificity: enzyme reaction with trypsin, colorimetric; type: biochemical, Bovine; settings: for absorbance (O.D.) measured, Try: So = 0.4 mmol, 37° C., 5 minutes, pH 8.0
T1 construct: purchased Wersinton (so in the source)
T1 sequence (P00760 24-246): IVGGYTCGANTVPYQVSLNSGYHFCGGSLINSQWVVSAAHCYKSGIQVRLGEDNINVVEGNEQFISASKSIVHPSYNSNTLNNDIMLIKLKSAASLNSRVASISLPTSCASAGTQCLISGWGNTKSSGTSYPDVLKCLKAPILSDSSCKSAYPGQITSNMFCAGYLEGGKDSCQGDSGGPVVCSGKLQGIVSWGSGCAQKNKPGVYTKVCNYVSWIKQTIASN
Description: (§1) Specificity of each of the new substrates synthesized in Examples 1 through 4 was examined by reacting with each enzyme. Details of reagents used are as described below.
(§2) (2) Buffer: concentration of Tris, NaCl and CaCl2 and pH (25° C.) were set as shown below, depending upon enzyme. […]
(§3) Enzyme used and its source, etc. are as follows. […]
Trypsin Bovine Wersinton 31M771 10 μg/ml
(§4) (4) Terminate solution (PNA): 10% acetic acid
(§5) (5) Color forming reagent (CHA): pentacyanoamineferroate
(§6) Buffer, 0.5 ml and 0.1 ml of substrate solution are charged in a silicone-treated hard glass test tube or plastic test tube. The mixture is previously heated for 10 minutes in a thermostat at 37° C. Then, 0.1 ml of enzyme solution is added to the mixture to perform enzyme reaction at 37° C. for 5 minutes. Accurately 5 minutes after, 2.0 ml of the terminate solution is added to stop the enzyme reaction. Then the reaction mixture is allowed to stand at 37° C. for 10 minutes and its absorbance is measured at 405 nm or 700 nm.

Thrombin [1] = molecular target: T2, Thrombin (Bos taurus, UniProt P00735); assay: Substrate specificity: enzyme reaction with thrombin, colorimetric; type: biochemical, Bovine; settings: for absorbance (O.D.) measured, TH: So = 0.4 mmol, 37° C., 5 minutes, pH 8.5
T2 construct: purchased Mochida Pharmaceutical Company Lot 65146
Description: as §1, §2, §3, §4, §5, §6

Kallikrein = assay: Substrate specificity: enzyme reaction with kallikrein, colorimetric; type: biochemical, Swine; settings: So = 0.4 mmol, 37° C., 5 minutes, pH 7.8
Description: as §1, §2, §3, §4, §5, §6

Factor Xa [2] = molecular target: T3, Factor Xa (Bos taurus, UniProt P00743); assay: Substrate specificity: enzyme reaction with factor Xa, colorimetric; type: biochemical, Bovine; settings: for absorbance (O.D.) measured, FXa: So = 0.4 mmol, 37° C., 5 minutes, pH 8.3
T3 construct: purchased Sigma Inc. Lot 73F-9450
T3 sequence (P00743 234-492 limits assumed): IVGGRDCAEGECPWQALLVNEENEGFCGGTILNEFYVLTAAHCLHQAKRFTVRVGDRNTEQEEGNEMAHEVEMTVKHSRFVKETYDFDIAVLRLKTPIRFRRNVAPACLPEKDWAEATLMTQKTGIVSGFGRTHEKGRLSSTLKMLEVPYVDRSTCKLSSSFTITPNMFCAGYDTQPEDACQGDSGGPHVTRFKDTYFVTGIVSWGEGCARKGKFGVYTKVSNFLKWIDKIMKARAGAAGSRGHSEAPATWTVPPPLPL
T3 sequence (P00743 41-180 partner limits assumed): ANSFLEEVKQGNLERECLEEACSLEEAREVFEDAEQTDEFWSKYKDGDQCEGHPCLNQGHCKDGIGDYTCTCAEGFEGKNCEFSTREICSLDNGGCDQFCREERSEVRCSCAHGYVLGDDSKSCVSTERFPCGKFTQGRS
Description: as §1, §2, §3, §4, §5, §6

thrombin [3] = molecular target: thrombin (Homo sapiens, UniProt P00734); settings: it is known; cited from earlier work
Plasmin [4] = molecular target: T4, Plasmin (Homo sapiens, UniProt P00747); settings: it is known; cited from earlier work
Target sequence in this assay (P00747 581-810 limits assumed, species assumed): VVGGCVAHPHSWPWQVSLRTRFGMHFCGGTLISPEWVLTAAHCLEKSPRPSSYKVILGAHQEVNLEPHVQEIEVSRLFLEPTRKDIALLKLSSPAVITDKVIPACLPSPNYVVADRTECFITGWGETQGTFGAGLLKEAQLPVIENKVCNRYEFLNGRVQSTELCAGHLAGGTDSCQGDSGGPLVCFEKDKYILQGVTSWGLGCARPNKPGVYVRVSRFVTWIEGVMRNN
Target sequence in this assay (P00747 97-580 partner limits assumed, species assumed): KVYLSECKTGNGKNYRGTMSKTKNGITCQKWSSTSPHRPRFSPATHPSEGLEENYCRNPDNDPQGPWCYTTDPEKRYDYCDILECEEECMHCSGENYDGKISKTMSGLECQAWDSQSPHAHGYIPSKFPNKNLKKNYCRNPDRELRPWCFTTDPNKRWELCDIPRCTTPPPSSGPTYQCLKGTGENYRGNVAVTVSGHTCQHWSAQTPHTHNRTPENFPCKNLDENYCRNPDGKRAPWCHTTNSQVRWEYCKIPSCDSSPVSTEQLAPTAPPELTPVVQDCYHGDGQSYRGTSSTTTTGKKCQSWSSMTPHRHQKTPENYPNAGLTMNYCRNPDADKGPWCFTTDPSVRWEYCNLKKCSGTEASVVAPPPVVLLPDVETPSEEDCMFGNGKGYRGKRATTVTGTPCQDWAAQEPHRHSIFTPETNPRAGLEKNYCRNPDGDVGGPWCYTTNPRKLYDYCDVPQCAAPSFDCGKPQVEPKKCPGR

factor Xa [5] = molecular target: factor Xa (Homo sapiens, UniProt P00742); settings: it is known; cited from earlier work
Chain of factor Xa (P00742 235-488 limits assumed): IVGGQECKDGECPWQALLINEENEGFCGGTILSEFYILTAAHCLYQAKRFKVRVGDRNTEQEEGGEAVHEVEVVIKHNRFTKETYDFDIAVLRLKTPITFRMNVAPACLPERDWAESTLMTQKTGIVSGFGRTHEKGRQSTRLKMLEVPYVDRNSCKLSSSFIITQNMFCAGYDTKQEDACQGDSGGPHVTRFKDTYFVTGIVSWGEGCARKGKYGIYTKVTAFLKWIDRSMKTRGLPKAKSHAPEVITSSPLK
Chain of factor Xa (P00742 41-179 partner limits assumed): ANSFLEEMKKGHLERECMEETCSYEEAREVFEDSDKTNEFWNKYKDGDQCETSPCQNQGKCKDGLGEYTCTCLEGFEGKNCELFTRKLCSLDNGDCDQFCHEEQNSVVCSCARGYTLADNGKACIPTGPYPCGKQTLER

Plasmin [6] = molecular target: T4, Plasmin; assay: Substrate specificity: enzyme reaction with plasmin, colorimetric; type: biochemical; design: purchased Green Cross Company Lot PL-35; settings: for absorbance (O.D.) measured, PL: So = 0.4 mmol, 37° C., 5 minutes, pH 7.8
Description: as §1, §2, §3
Target sequence in this assay (P00747 581-810 limits assumed): as the sequence (P00747 581-810 limits assumed, species assumed) above
Target sequence in this assay (P00747 97-580 partner limits assumed): as the sequence (P00747 97-580 partner limits assumed, species assumed) above
Plasmin Human Green Cross PL-35 0.25 CU/ml
as §4, §5, §6

[7] = 700 nm, pentacyanoamineferroate
[8] = CHR-TRY is made 100, So=0.4 mmol

Row | Molecule | absorbance (O.D.) measured, Try (Trypsin; [7]) [O.D.] | absorbance (O.D.) measured, TH (Thrombin [1]; [7]) [O.D.] | absorbance (O.D.) measured, KL (Kallikrein; [7]) [O.D.] | absorbance (O.D.) measured, FXa (Factor Xa [2]; [7]) [O.D.] | absorbance (O.D.) measured, PL (Plasmin [6]; [7]) [O.D.] | other results
1 | CC(C)[C@H](NC(=O)OCc1ccccc1)C(=O)NCC(=O)N[C@@H](CCCNC(=N)N)C(=O)Nc1ccc([N+](=O)[O-])cc1 [CHR-TRY, Benzyloxy-carbonyl-Val-Gly-Arg-p-Nitroanilide, reference compound] (HELM PEPTIDE1{[O=C(OCc1ccccc1)[*:2]].V.G.R.[O=[N+]([O-])c1ccc(N[*:1])cc1]}$$$$V2.0) |  |  |  |  |  | absorbance (O.D.) measured, Try (Trypsin; 405 nm (PNA substrate)): 0.243 O.D.; absorbance (O.D.) measured, TH (Thrombin [1]; 405 nm (PNA substrate)): 0.050 O.D.; absorbance (O.D.) measured, KL (Kallikrein; 405 nm (PNA substrate)): 0.008 O.D.; absorbance (O.D.) measured, FXa (Factor Xa [2]; 405 nm (PNA substrate)): 0.090 O.D.; reaction with thrombin (thrombin [3]): considerably reacts; reaction with plasmin (Plasmin [4]): considerably reacts; reaction with factor Xa (factor Xa [5]): considerably reacts; absorbance (O.D.) measured, PL (Plasmin [6]; 405 nm (PNA substrate)): 0.014 O.D.
2 | CCCC[C@H](NC(=O)[C@@H]1CCC(=O)N1)C(=O)N[C@@H](CCCNC(=N)N)C(=O)Nc1ccc(O)c(C(=O)O)c1 [PS-1296, H--PyroGlu--NLeu--Arg--CHA.HCl] | 0.656 | 0.002 | 0.006 | 0.008 | 0.010 | 
3 | CCC[C@H](NC(=O)[C@@H]1CCC(=O)N1)C(=O)N[C@@H](CCCNC(=N)N)C(=O)Nc1ccc(O)c(C(=O)O)c1 [PS-1295, H--PyroGlu--NVal--Arg--CHA.HCl] | 0.637 | 0.002 | 0.006 | 0.008 | 0.008 | 
4 | N=C(N)NCCC[C@H](NC(=O)[C@@H]1CCCCN1C(=O)[C@@H]1CCC(=O)N1)C(=O)Nc1ccc(O)c(C(=O)O)c1 [PS-1292] | 0.814 | 0.021 | 0.002 | 0.007 | 0.005 | 
5 | N=C(N)NCCC[C@H](NC(=O)[C@@H]1CCCN1C(=O)[C@@H]1CCC(=O)N1)C(=O)Nc1ccc(O)c(C(=O)O)c1 [PS-1242, H--PyroGlu--Pro--Arg--CHA] | 0.570 | 0.022 | 0.004 | 0.008 | 0.013 | 
6 | H--D--PyroGlu--Ala--Arg--CHA.HCl [PS-1290] | 0.403 | 0.005 | 0.002 | 0.007 | 0.000 | 
7 | C[C@H](NC(=O)[C@@H]1CCC(=O)N1)C(=O)N[C@@H](CCCNC(=N)N)C(=O)Nc1ccc(O)c(C(=O)O)c1 [PS-1245, H-PyroGlu-Ala-Arg-CHA] | 0.676 | 0.006 | 0.005 | 0.008 | 0.005 | reactivity with trypsin relative to CHR-TRY (Trypsin; CHR-TRY is made 100): 278%; Relative Reactivity of Substrate to Each Enzyme, Try (Trypsin; [8]): 278; reactivity with thrombin relative to CHR-TRY (Thrombin [1]; CHR-TRY is made 100): 12%; Relative Reactivity of Substrate to Each Enzyme, TH (Thrombin [1]; [8]): 12; reactivity with factor Xa relative to CHR-TRY (Factor Xa [2]; CHR-TRY is made 100): 19%; Relative Reactivity of Substrate to Each Enzyme, FXa (Factor Xa [2]; [8]): 9; reactivity with plasmin relative to CHR-TRY (Plasmin [6]; CHR-TRY is made 100): 36%; Relative Reactivity of Substrate to Each Enzyme, PL (Plasmin [6]; [8]): 36
8 | CC[C@H](NC(=O)[C@@H]1CCC(=O)N1)C(=O)N[C@@H](CCCNC(=N)N)C(=O)Nc1ccc(O)c(C(=O)O)c1 [PS-1294, H--PyroGlu--But--Arg--CHA.HCl] | 0.588 | 0.003 | 0.003 | 0.010 | 0.008 | 
9 | H--D--PyroGlu--Pro--Arg--CHA.HCl [PS-1291] | 0.556 | 0.012 | 0.002 | 0.007 | 0.004 | 
10 | CC(C)[C@H](NC(=O)[C@@H]1CCC(=O)N1)C(=O)N[C@@H](CCCNC(=N)N)C(=O)Nc1ccc(O)c(C(=O)O)c1 [PS-1293, H--PyroGlu--Val--Arg--CHA.HCl] | 0.434 | 0.002 | 0.002 | 0.007 | 0.007 | 
11 | N=C(N)NCCC[C@H](NC(=O)CNC(=O)[C@H](N)CCC(=O)O)C(=O)Nc1ccc(O)c(C(=O)O)c1 [PS-1298, H--D--Glu--Gly--Arg--CHA.2HCl] | 0.401 | 0.002 | 0.003 | 0.004 | 0.004 | 

— patent US5116941A, “Peptide substrates for determination of enzyme activity” (Nitto Boseki Co., Ltd., priority 1988, dated 1992)
